From patent US5935591A, “Method for treatment of equine protozoal myeloencephalitis with thiazolides” (Romark Laboratories, L.C., priority 1998, dated 1999)
In brackets after ≈: the same amount, converted by molar mass. Where two headings read alike, the source gives them in different places.

Tests used:
Sarcocystis spp. = assay: in vitro test system for activity against Sarcocystis spp.; format: cell-based; conditions: for activity in inhibiting the growth of the protozoa: in words
[1] = test system: equine protozoal myeloencephalitis (Sarcocystis infection); assay: treatment of horses with nitazoxanide: symptoms of EPM; format: in vivo, horse
Method: (§1) All dosages were administered in solid (tablet) form.
(§2) This horse was positive for Sarcocystis infection in CSF and serum. […] The horse injured both hocks on day 12 by kicking the stall, resulting in edema of both rear limbs. […] On day 17 he was back to eating normally. Symptoms of EPM were gone by day 10 and have not returned.
(§3) This horse was positive for Sarcocystis infection in serological testing for antibody, showing no symptoms of the disease.
(§4) This horse was positive for Sarcocystis in serological testing for antibody, showing no symptoms of the disease.

[2] = safety and tolerance of nitazoxanide in horses; format: in vivo, horse; conditions: for tolerance of the drug: oral
Method: as §1, §2, §3, §4

[3] = cited from earlier work
Moniezia expansa = conditions: single oral dose; sheep; cited from earlier work
[4] = test system: Avitellina centripunctata; conditions: single oral dose; sheep; cited from earlier work
Stilesia globipunctata = conditions: single oral dose; sheep; cited from earlier work
Thysanezia ovilla = conditions: single oral dose; sheep; cited from earlier work
Dipylidium caninum = conditions: single oral dose; dogs; cited from earlier work
Taenia pisiformis = conditions: single oral dose; dogs; cited from earlier work
Taenia taeniaeformis = conditions: single oral dose; cats; cited from earlier work
Uncinaria stenocephala = conditions: repeated doses; dogs; cited from earlier work
Trichuris vulpis = conditions: repeated doses; dogs; cited from earlier work
Hymenolepis nana = conditions: mice; cited from earlier work
Syphacia obvelata = conditions: mice; cited from earlier work
[5] = test system: Gram positive bacteria such as Staphylococcus aureus; conditions: cited from earlier work
[6] = test system: facultative and obligate anaerobic Gram positive and Gram negative bacteria; conditions: cited from earlier work
[7] = test system: protozoan and helminthic pathogens; conditions: cited from earlier work

CC(=O)Oc1ccccc1C(=O)Nc1ncc([N+](=O)[O-])s1 [nitazoxanide, 2-(acetolyloxy)-N-(5-nitro 2-thiazoly) benzamide]
50% inhibitory concentration (growth of the protozoa) (Sarcocystis spp.): approximately 0.475 μg/ml | activity in inhibiting the growth of the protozoa (Sarcocystis spp.): highly active | day by which symptoms of EPM were gone ([1]; Horse #1, Sarcocystis positive in CSF and serum, oral tablet, 50 mg/kg days 1-6, 100 mg/kg days 9-16, 150 mg/kg days 18-25): ≤ 10 days | reoccurrence of symptoms ([1]; Horse #1, monitoring continued for 23 days): no reoccurrence of symptoms | symptoms at the end of the trial and during the 30-day period after the trial ([1]; five horses, oral tablets, 50-150 mg/kg): absence of any symptoms | eating of feed ([2]; Horse #1, days 15 and 16 (100 mg/kg days 9-16), back to eating normally on day 17): slow to finish eating feed | tolerance of the drug ([2]; Horse #2, 75 mg/kg days 1-6, 100 mg/kg days 9-16, 150 mg/kg days 18-25): tolerated the drug well at all dose levels | tolerance of the drug ([2]; Horse #3, 75 mg/kg days 1-6, 100 mg/kg days 9-16, 150 mg/kg days 18-27): tolerated the drug well at all dose levels | tolerance of the drug ([2]; Horse #4, 75 mg/kg days 1-6, 100 mg/kg days 9-16, 150 mg/kg days 18-27): tolerated the drug well at all dose levels | tolerance of the drug ([2]; Horse #5, 75 mg/kg days 1-6, 100 mg/kg days 9-16, 150 mg/kg days 18-27): tolerated the drug well at all dose levels | signs of toxicity ([2]; all five horses): no signs of toxicity | solubility ([3]; "either" (so in the source)): very poorly soluble | solubility ([3]; acetic acid): poorly soluble | solubility ([3]; acetone): fairly soluble | solubility ([3]; chloroform): poorly soluble | solubility ([3]; dioxane): fairly soluble | solubility ([3]; ethanol): poorly soluble | solubility ([3]; methyl benzene): very poorly soluble | solubility ([3]; pyridine): easily soluble | solubility ([3]; water): very poorly soluble | cestocidal effect (Moniezia expansa): cestocidal effect | cestocidal effect [4]: cestocidal effect | cestocidal effect (Stilesia globipunctata): cestocidal effect | cestocidal effect (Thysanezia ovilla): cestocidal effect | cestocidal effect (Dipylidium caninum): cestocidal effect | cestocidal effect (Taenia pisiformis): cestocidal effect | cestocidal effect (Taenia taeniaeformis): cestocidal effect | efficacy against gastrointestinal nematodes (Uncinaria stenocephala): also observed | efficacy against gastrointestinal nematodes (Trichuris vulpis): also observed | single dose activity (Hymenolepis nana): activity | effect of repeated doses (Syphacia obvelata): effect | antibacterial effect [5]: effective | antibacterial effect [6]: effective | activity against protozoan and helminthic pathogens [7]: activity against a number of protozoan and helminthic pathogens

O=C(Nc1ncc([N+](=O)[O-])s1)c1ccccc1O [tizoxanide]
activity in inhibiting the growth of the protozoa (Sarcocystis spp.): highly active | IC50 (Sarcocystis spp.; read-out: 50% inhibitory concentration (growth of the protozoa)): ~0.475 µg/mL (≈ 1.79 µM)
